Measured values as given in patent publication US20250228242A1 (priority 2021, published 2025).

What was measured:
[1] = system: Pseudomonas syringae pv. tomato (Pto) DC3000; test: Bacterial liquid culture growth curves (OD600), Pto DC3000; settings: 18.5 h, read-out: Absolute growth rate relative to mock control, Pto DC3000
Rhodococcus sp. = test: Bacterial liquid culture growth curves (OD600), Rhodococcus sp.; settings: 18.5 h, read-out: Absolute growth rate relative to mock control, Rhodococcus sp.
Albugo laibachii = Albugo laibachii on A. thaliana, syringe infiltration of compound, visual scoring of disease severity; type: in vivo; settings: in Arabidopsis thaliana, 100 μM in 1% DMSO syringe infiltrated into adult A. thaliana, visually scored at nine dpi, read-out: A. laibachii Inhibitory effect
Protocol: A. thaliana seeds were stratified on moist soil (Einheitserde type A240, Stender, Germany) for seven days at 4° C. in darkness, before transfer into growth chambers with short day conditions (10 h light, 14 h darkness, 23/20° C., 60% humidity). After three weeks, seedlings were singularised and grown for three weeks further. After six weeks, A. thaliana plants were used for experiments and after infection they were transferred into SANYO (Panasonic MLR-352, Japan) growth cabinets (10 h light, 14 h darkness, 22/16° C.). Potato plants were grown from tubers by covering them with soil (Einheitserde type A240, Stender, Germany). The leaves of adult plants (˜4-6 weeks old) were cut off and kept in a moist environment for infection assays.
For regular Albugo sp. infections A. thaliana Ws-0 was sprayed with an Albugo sp. conidiospores solution. These spore solutions were prepared by harvesting sporulating leaf material at 14 days post infection (dpi) and adding water for rehydration of the spores. Spore solutions were hold on ice for ˜1 h, before filtering through miracloth (Merck Millipore, Germany) to remove dirt. Spores were counted and the solutions diluted to 22.2×10^4 conidiospores/ml. Albugo sp. spore solutions were sprayed uniformly on A. thaliana leaves (4.5 ml per six plants) using an airbrush gun. During spraying, plants were placed in a plastic bag and afterwards transferred into a cold room to incubate at 4° C. in darkness (˜16 h). The next morning, plants were transferred into plant growth cabinets, but left in clear bags to keep humidity high, which supports Albugo sp. infections. ˜24 h later plants were unbagged and further incubated under normal plant growth conditions.
Afterwards, the plants were kept in the lab for ˜1 h to let the leaves equilibrate again. The infiltrated plants were infected with Albugo sp., following the above-mentioned protocol. At 7 dpi, infiltrated leaves were phenotypically scored and harvested. The samples were frozen in liquid nitrogen and stored at −80° C. until DNA extraction for growth quantification via qPCR. For experiment 4, A. candida spore solutions were prepared as before and mixed with 10 mM stock solution of the test compound (100 μM end conc.). The mixture of spore solution and test compound was sprayed and incubated as for experiment 2 and 3.
• Fungicidal activity against other oomycetes was tested using isolates of the obligate biotrophic pathogen genus Albugo on Arabidopsis thaliana. The test compounds, 100 μM in 1% DMSO, were syringe infiltrated into adult A. thaliana and subsequently sprayed with aqueous spore solutions of Albugo laibachii or A. candida. In primary screenings, disease severity was visually screened and scored at nine days post infection (dpi) (Table 2+3).

Phytophthora infestans = test: whole plant or invertebrate; type: in vivo; settings: in Solanum tuberosum, 120 h, read-out: P. infestans % inhibition
P. infestans = test: whole plant or invertebrate; type: in vivo; settings: Phytophthora infestans, in Solanum tuberosum, read-out: P. infestans % inhibition

SMILES | activity at 100 µM [1] | activity at 100 µM (Rhodococcus sp.) | inhibition at 100 µM (Albugo laibachii) | inhibition at 100 µM (Phytophthora infestans) | inhibition at 100 µM (P. infestans)
Oc1ccc(-c2cc(-c3cccc(Br)c3)[nH]n2)cc1O [Compound 4, 5-(3-Bromophenyl)-3-(3,4-dihydroxyphenyl)-1H-pyrazole] | 48% | -1% | 5 to 30% | – | –
Oc1cc(-c2cc(-c3cc(Br)cc(Br)c3)[nH]n2)cc(O)c1O [Compound 6, 5-(3,5-Dibromophenyl)-3-(3,4,5-trihydroxyphenyl)-1H-pyrazole] | 73% | 1% | > 70% | – | –
Fc1cccc(-c2cc(-c3ccc4c(c3)OCO4)n[nH]2)c1 [Compound 7, 3-(1,3-Benzodioxol-5-yl)-5-(3-fluorophenyl)-1H-pyrazole] | 98% | 14% | 30 to 70% | – | –
Ic1cccc(-c2cc(-c3ccc4c(c3)OCO4)n[nH]2)c1 [Compound 8, 3-(1,3-Benzodioxol-5-yl)-5-(3-iodophenyl)-1H-pyrazole] | 100% | 35% | 5 to 30% | – | –
COc1cccc(-c2cc(-c3ccc4c(c3)OCO4)n[nH]2)c1 [Compound 9, 3-(1,3-Benzodioxol-5-yl)-5-(3-methoxyphenyl)-1H-pyrazole] | 100% | 8% | 30 to 70% | – | –
FC(F)(F)c1cccc(-c2cc(-c3ccc4c(c3)OCO4)n[nH]2)c1 [Compound 11, 3-(1,3-Benzodioxol-5-yl)-5-[3-(trifluoromethyl)phenyl]-1H-pyrazole] | 81% | 110% | 5 to 30% | – | –
CN(C)c1ccc(-c2cc(-c3cccc(Br)c3)[nH]n2)cc1 [Compound 13, 5-(3-Bromophenyl)-3-[4-(dimethylamino)phenyl]-1H-pyrazole] | – | – | > 70% | – | –
Oc1ccc(-c2cc(-c3cccc(F)c3)[nH]n2)cc1O [Compound 16, 3-(3,4-Dihydroxyphenyl)-5-(3-fluorophenyl)-1H-pyrazole] | 66% | 0% | 30 to 70% | – | –
COc1ccc(-c2cc(-c3cccc(Br)c3)[nH]n2)cc1OC [Compound 29, 5-(3-Bromophenyl)-3-(3,4-dimethoxyphenyl)-1H-pyrazole] | 88% | 62% | 30 to 70% | – | –
COc1ccc(-c2cc(-c3ccc(O)cc3)[nH]n2)cc1OC [Compound 32, 3-(3,4-Dimethoxyphenyl)-5-(4-hydroxyphenyl)-1H-pyrazole] | 90% | 10% | – | 77% | –
COc1ccc(-c2cc(-c3cccc(O)c3)[nH]n2)cc1OC [Compound 33, 3-(3,4-Dimethoxyphenyl)-5-(3-hydroxyphenyl)-1H-pyrazole] | 90% | 6% | – | 85% | 84%
Oc1cccc(-c2cc(-c3ccc4c(c3)OCO4)n[nH]2)c1 [Compound 34, 3-(1,3-Benzodioxol-5-yl)-5-(3-hydroxyphenyl)-1H-pyrazole] | 56% | -1% | 30 to 70% | – | –
Clc1cccc(-c2cc(-c3ccc4c(c3)OCO4)n[nH]2)c1 [Compound 35, 3-(1,3-Benzodioxol-5-yl)-5-(3-chlorophenyl)-1H-pyrazole] | 85% | 11% | 30 to 70% | – | –
Nc1ccc(-c2cc(-c3cccc(Cl)c3)[nH]n2)cc1 [Compound 39, 3-(4-Aminophenyl)-5-(3-chlorophenyl)-1H-pyrazole] | 94% | -1% | 30 to 70% | – | –
Nc1ccc(-c2cc(-c3cccc(Br)c3)[nH]n2)cc1 [Compound 40, 3-(4-Aminophenyl)-5-(3-bromophenyl)-1H-pyrazole] | 91% | -1% | > 70% | – | –
Cn1nc(-c2ccc3c(c2)OCO3)cc1-c1cccc(Br)c1 [Compound 41, 3-(1,3-Benzodioxol-5-yl)-5-(3-bromophenyl)-1-methyl-1H-pyrazole] | 106% | 62% | 30 to 70% | – | –
